Tested on: MV-4-11 cells
Assay: Gene expression microarray analysis (Affymetrix PrimeView) and GSEA
Format: cell-based, human
Design: RFU PODN (11730768_x_at) / Fold change /veh PODN (11730768_x_at) / RFU LINC00158 (11744669_a_at) / Fold change /veh LINC00158 (11744669_a_at) / RFU DUSP10 (11751237_a_at) / Fold change /veh DUSP10 (11751237_a_at) / RFU ID3 (11757404_x_at) / Fold change /veh ID3 (11757404_x_at) / RFU PLEKHG5 (11737974_s_at) / Fold change /veh PLEKHG5 (11737974_s_at) / RFU LRRC4B (11730491_at) / Fold change /veh LRRC4B (11730491_at) / RFU GIMAP4 (11747438_a_at) / Fold change /veh GIMAP4 (11747438_a_at) / RFU KRT8 (11758183_x_at) / Fold change /veh KRT8 (11758183_x_at) / RFU CNN1 (11734310_a_at) / Fold change /veh CNN1 (11734310_a_at) / RFU VPS37D (11726825_at) / Fold change /veh VPS37D (11726825_at) / RFU C10orf10 (11716522_x_at) / Fold change /veh C10orf10 (11716522_x_at) / RFU KIR2DL2 /// KIR2DL4 /// KIR2DL5A /// KIR2DL5B /// KIR2DS1 /// KIR2DS2 /// KIR2DS3 /// KIR2DS4 /// KIR3DL3 /// KIR3DL3 /// KIR3DS1 (11738374_at) / Fold change /veh KIR2DL2 /// KIR2DL4 /// KIR2DL5A /// KIR2DL5B /// KIR2DS1 /// KIR2DS2 /// KIR2DS3 /// KIR2DS4 /// KIR3DL3 /// KIR3DL3 /// KIR3DS1 (11738374_at) / RFU C1QL1 (11718748_at) / Fold change /veh C1QL1 (11718748_at) / RFU TMPRSS4 (11747572_a_at) / Fold change /veh TMPRSS4 (11747572_a_at) / RFU HAMP (11756126_x_at) / Fold change /veh HAMP (11756126_x_at) / RFU RNFT2 (11725882_a_at) / Fold change /veh RNFT2 (11725882_a_at) / RFU NR4A2 (11747474_a_at) / Fold change /veh NR4A2 (11747474_a_at) / RFU ABCC12 (11746883_a_at) / Fold change /veh ABCC12 (11746883_a_at) / RFU TMEM136 (11760407_x_at) / Fold change /veh TMEM136 (11760407_x_at) / RFU CLDN22 /// WWC2 (11732394_at) / Fold change /veh CLDN22 /// WWC2 (11732394_at) / RFU HLA-DPB1 (11760878_x_at) / Fold change /veh HLA-DPB1 (11760878_x_at) / RFU SPINT1 (11716480_a_at) / Fold change /veh SPINT1 (11716480_a_at) / RFU GAP43 (11754022_s_at) / Fold change /veh GAP43 (11754022_s_at) / RFU A4GNT (11735810_at) / Fold change /veh A4GNT (11735810_at) / RFU PRB3 (11715151_x_at) / Fold change /veh PRB3 (11715151_x_at) / RFU TUBB4B (11761932_at) / Fold change /veh TUBB4B (11761932_at) / RFU CAPN14 (11732068_a_at) / Fold change /veh CAPN14 (11732068_a_at) / RFU TMCC2 (11721928_a_at) / Fold change /veh TMCC2 (11721928_a_at) / RFU IRGQ (11745062_a_at) / Fold change /veh IRGQ (11745062_a_at) / RFU FAM174B (11720279_a_at) / Fold change /veh FAM174B (11720279_a_at) / RFU TMPRSS4 (11748680_a_at) / Fold change /veh TMPRSS4 (11748680_a_at) / RFU FAM212B (11763350_a_at) / Fold change /veh FAM212B (11763350_a_at) / RFU PLEKHG5 (11743358_a_at) / Fold change /veh PLEKHG5 (11743358_a_at) / RFU ZSCAN30 (11745921_a_at) / Fold change /veh ZSCAN30 (11745921_a_at) / RFU CMKLR1 (11741424_a_at) / Fold change /veh CMKLR1 (11741424_a_at) / RFU LOC101060620 /// MAPK8IP1 (11723275_at) / Fold change /veh LOC101060620 /// MAPK8IP1 (11723275_at) / RFU SPTSSB (11747773_x_at) / Fold change /veh SPTSSB (11747773_x_at) / RFU PRSS12 (11739890_at) / Fold change /veh PRSS12 (11739890_at) / RFU BIN1 (11741810_x_at) / Fold change /veh BIN1 (11741810_x_at) / RFU WNT11 (11732464_a_at) / Fold change /veh WNT11 (11732464_a_at) / RFU C10orf10 (11716521_a_at) / Fold change /veh C10orf10 (11716521_a_at) / RFU C5orf56 (11738089_at) / Fold change /veh C5orf56 (11738089_at) / RFU CYB561 (11721691_x_at) / Fold change /veh CYB561 (11721691_x_at) / RFU ANKRD19P (11752326_a_at) / Fold change /veh ANKRD19P (11752326_a_at) / RFU OR2T12 /// OR2T33 /// OR2T8 (11738714_s_at) / Fold change /veh OR2T12 /// OR2T33 /// OR2T8 (11738714_s_at) / RFU VCAN (11748164_a_at) / Fold change /veh VCAN (11748164_a_at) / RFU JSRP1 (11732532_at) / Fold change /veh JSRP1 (11732532_at) / RFU KRTAP10-11 (11738290_x_at) / Fold change /veh KRTAP10-11 (11738290_x_at) / RFU MYO3A (11730013_a_at) / Fold change /veh MYO3A (11730013_a_at) / RFU EBF3 (11725865_a_at) / Fold change /veh EBF3 (11725865_a_at) / RFU CAMK2N1 (11719241_x_at) / Fold change /veh CAMK2N1 (11719241_x_at) / RFU C5orf56 (11738088_a_at) / Fold change /veh C5orf56 (11738088_a_at) / RFU OLFML3 (11715873_a_at) / Fold change /veh OLFML3 (11715873_a_at) / RFU LOC100653217 /// NTM (11731650_a_at) / Fold change /veh LOC100653217 /// NTM (11731650_a_at) / RFU MAPK11 (11762145_a_at) / Fold change /veh MAPK11 (11762145_a_at) / RFU FIZ1 (11724087_x_at) / Fold change /veh FIZ1 (11724087_x_at) / RFU OASL (11726364_x_at) / Fold change /veh OASL (11726364_x_at) / RFU SOX15 (11748057_x_at) / Fold change /veh SOX15 (11748057_x_at) / RFU CD79A (11719716_a_at) / Fold change /veh CD79A (11719716_a_at) / RFU HIST1H1D (11736915_at) / Fold change /veh HIST1H1D (11736915_at) / RFU CASKIN2 (11723855_a_at) / Fold change /veh CASKIN2 (11723855_a_at) / RFU LOC730098 (11760151_x_at) / Fold change /veh LOC730098 (11760151_x_at) / RFU OR4N2 (11742367_at) / Fold change /veh OR4N2 (11742367_at) / RFU PRRT2 (11749266_a_at) / Fold change /veh PRRT2 (11749266_a_at) / RFU SNX32 (11753110_a_at) / Fold change /veh SNX32 (11753110_a_at) / RFU CDHR5 (11726645_a_at) / Fold change /veh CDHR5 (11726645_a_at) / RFU RCAN1 (11760418_a_at) / Fold change /veh RCAN1 (11760418_a_at) / RFU FAM167A (11723789_a_at) / Fold change /veh FAM167A (11723789_a_at) / RFU FAM26E (11764081_at) / Fold change /veh FAM26E (11764081_at) / RFU ISYNA1 (11749810_s_at) / Fold change /veh ISYNA1 (11749810_s_at) / RFU ACY1 (11761880_at) / Fold change /veh ACY1 (11761880_at) / RFU 11764098_at / Fold change /veh 11764098_at / RFU SAMD14 (11745864_x_at) / Fold change /veh SAMD14 (11745864_x_at) / RFU NPB (11741838_a_at) / Fold change /veh NPB (11741838_a_at) / RFU TMPRSS6 (11731388_a_at) / Fold change /veh TMPRSS6 (11731388_a_at) / RFU KRTAP10-2 (11738614_at) / Fold change /veh KRTAP10-2 (11738614_at) / RFU ARHGAP8 /// PRR5-ARHGAP8 (11727945_x_at) / Fold change /veh ARHGAP8 /// PRR5-ARHGAP8 (11727945_x_at) / RFU KRTAP5-7 /// NADSYN1 (11734609_at) / Fold change /veh KRTAP5-7 /// NADSYN1 (11734609_at) / RFU RASL12 (11751679_a_at) / Fold change /veh RASL12 (11751679_a_at) / RFU CDKN2B (11736163_a_at) / Fold change /veh CDKN2B (11736163_a_at) / RFU PRF1 (11729649_at) / Fold change /veh PRF1 (11729649_at) / RFU, ZNF638 /// ZNF638-IT1 / Fold change vs veh, ZNF638 /// ZNF638-IT1 / RFU, PANK3 / Fold change vs veh, PANK3 / RFU, SH3YL1 / Fold change vs veh, SH3YL1 / RFU, ZEB2 / Fold change vs veh, ZEB2 / RFU, NRIP1 / Fold change vs veh, NRIP1 / RFU, PTTG1IP / Fold change vs veh, PTTG1IP / RFU, CAPN2 / Fold change vs veh, CAPN2 / RFU, MED14 / Fold change vs veh, MED14 / RFU, SNORA58 / Fold change vs veh, SNORA58 / RFU, C1orf63 / Fold change vs veh, C1orf63 / RFU, LRRFIP1 / Fold change vs veh, LRRFIP1 / RFU, NDUFAF7 / Fold change vs veh, NDUFAF7 / RFU, SLC12A2 / Fold change vs veh, SLC12A2 / RFU, IBTK / Fold change vs veh, IBTK / RFU, ESF1 / Fold change vs veh, ESF1 / Fold change vs veh, TMEM50B / RFU, TAOK1 / Fold change vs veh, TAOK1 / RFU, ACBD3 / Fold change vs veh, ACBD3 / RFU, TMA16 / Fold change vs veh, TMA16 / RFU, RWDD3 / Fold change vs veh, RWDD3 / RFU, BCAT1 / Fold change vs veh, BCAT1 / RFU, EDEM3 / Fold change vs veh, EDEM3 / RFU, TMEM33 / Fold change vs veh, TMEM33 / RFU, WDR75 / Fold change vs veh, WDR75 / RFU, AHCTF1 / Fold change vs veh, AHCTF1 / RFU, TFRC / Fold change vs veh, TFRC / RFU, ZDHHC17 / Fold change vs veh, ZDHHC17 / RFU, NOM1 / Fold change vs veh, NOM1 / RFU, ARL8B / Fold change vs veh, ARL8B / RFU, ZBTB11 / Fold change vs veh, ZBTB11 / RFU, TAMM41 / Fold change vs veh, TAMM41 / RFU, KIAA1704 /// LOC100996395 / Fold change vs veh, KIAA1704 /// LOC100996395 / RFU, ING1 / Fold change vs veh, ING1 / RFU, TRMT61B / Fold change vs veh, TRMT61B / RFU, FUBP3 / Fold change vs veh, FUBP3 / RFU, TP53 / Fold change vs veh, TP53 / RFU, TNKS2 / Fold change vs veh, TNKS2 / RFU, ZFP14 / Fold change vs veh, ZFP14 / RFU, ACTR2 / Fold change vs veh, ACTR2 / RFU, PPP3R1 / Fold change vs veh, PPP3R1 / RFU, PIK3R1 / Fold change vs veh, PIK3R1 / RFU, HNRNPA1 / Fold change vs veh, HNRNPA1 / RFU, RNF170 / Fold change vs veh, RNF170 / RFU, ZNF28 / Fold change vs veh, ZNF28 / RFU, RNGTT / Fold change vs veh, RNGTT / RFU, OGT / Fold change vs veh, OGT / RFU, BRD1 / Fold change vs veh, BRD1 / RFU, MARS / Fold change vs veh, MARS / RFU, ZNF655 / Fold change vs veh, ZNF655 / RFU, FAHD1 / Fold change vs veh, FAHD1 / RFU, BDP1 / Fold change vs veh, BDP1 / RFU, LRRCC1 / Fold change vs veh, LRRCC1 / RFU, ARID1A / Fold change vs veh, ARID1A / RFU, ZNF146 / Fold change vs veh, ZNF146 / RFU, ZNF330 / Fold change vs veh, ZNF330 / RFU, GPN3 / Fold change vs veh, GPN3 / RFU, C9orf123 / Fold change vs veh, C9orf123 / RFU, N4BP2L2 / Fold change vs veh, N4BP2L2 / RFU, ARFIP1 / Fold change vs veh, ARFIP1 / RFU, FAM179B / Fold change vs veh, FAM179B / RFU, BCL10 / Fold change vs veh, BCL10 / RFU, UHRF1BP1L / Fold change vs veh, UHRF1BP1L / RFU, BET1 / Fold change vs veh, BET1 / RFU, CNOT2 / Fold change vs veh, CNOT2 / RFU, ZNF268 / Fold change vs veh, ZNF268 / Fold change vs veh, ZNF507 / RFU, DGCR2 / Fold change vs veh, DGCR2 / RFU, WDSUB1 / Fold change vs veh, WDSUB1 / Fold change vs veh, HSP90B1 /// MIR3652 / RFU, ADSS / Fold change vs veh, ADSS / RFU, GK / Fold change vs veh, GK / RFU, ZNF148 / Fold change vs veh, ZNF148 / RFU, TAF9 / Fold change vs veh, TAF9 / RFU, SLC1A5 / Fold change vs veh, SLC1A5 / RFU, SLMO2 / Fold change vs veh, SLMO2 / RFU, ABCC4 / Fold change vs veh, ABCC4 / RFU, LOC101060439 /// RAP1B / Fold change vs veh, LOC101060439 /// RAP1B / RFU, RFX7 / Fold change vs veh, RFX7 / RFU, GTPBP10 / Fold change vs veh, GTPBP10 / RFU, CNEP1R1 / Fold change vs veh, CNEP1R1 / RFU, BIVM-ERCC5 /// ERCC5 / Fold change vs veh, BIVM-ERCC5 /// ERCC5 / RFU, ILF3 / Fold change vs veh, ILF3 / RFU 11762660_at / Fold change /veh 11762660_at / RFU VCAN (11757783_s_at) / Fold change /veh VCAN (11757783_s_at) / RFU DDX43 (11728927_at) / Fold change /veh DDX43 (11728927_at) / RFU KRT8 (11758188_x_at) / Fold change /veh KRT8 (11758188_x_at) / RFU NKD1 (11759106_at) / Fold change /veh NKD1 (11759106_at) / RFU SRD5A1 (11742802_a_at) / Fold change /veh SRD5A1 (11742802_a_at) / RFU TPSAB1 /// TPSB2 (11721975_s_at) / Fold change /veh TPSAB1 /// TPSB2 (11721975_s_at) / RFU GSTM3 (11746129_a_at) / Fold change /veh GSTM3 (11746129_a_at) / RFU IL23R (11737362_x_at) / Fold change /veh IL23R (11737362_x_at) / RFU TMEM51 (11727254_a_at) / Fold change /veh TMEM51 (11727254_a_at) / RFU PIWIL2 (11732686_x_at) / Fold change /veh PIWIL2 (11732686_x_at) / RFU ORM1 (11744905_x_at) / Fold change /veh ORM1 (11744905_x_at) / RFU CCDC152 (11743942_at) / Fold change /veh CCDC152 (11743942_at) / RFU ECM1 (11717891_a_at) / Fold change /veh ECM1 (11717891_a_at) / RFU IL23R (11748794_a_at) / Fold change /veh IL23R (11748794_a_at) / RFU TNFAIP8L3 (11732012_x_at) / Fold change /veh TNFAIP8L3 (11732012_x_at) / RFU MBOAT4 (11741988_at) / Fold change /veh MBOAT4 (11741988_at) / RFU 11764193_at / Fold change /veh 11764193_at / RFU TMEM53 (11763286_at) / Fold change /veh TMEM53 (11763286_at) / RFU MAGEB2 (11727129_at) / Fold change /veh MAGEB2 (11727129_at) / RFU TMEM200A (11744735_a_at) / Fold change /veh TMEM200A (11744735_a_at) / RFU CCDC152 (11751479_a_at) / Fold change /veh CCDC152 (11751479_a_at) / RFU FAM211A (11726209_a_at) / Fold change /veh FAM211A (11726209_a_at) / RFU RGS16 (11746705_a_at) / Fold change /veh RGS16 (11746705_a_at) / RFU VCAN (11755009_s_at) / Fold change /veh VCAN (11755009_s_at) / RFU RHOB (11743442_s_at) / Fold change /veh RHOB (11743442_s_at) / RFU RGS16 (11720943_a_at) / Fold change /veh RGS16 (11720943_a_at) / RFU RGS16 (11720944_at) / Fold change /veh RGS16 (11720944_at) / RFU, VPS4B / Fold change vs veh, VPS4B / RFU, CREB1 / Fold change vs veh, CREB1 / RFU, DNAJC13 / Fold change vs veh, DNAJC13 / RFU, GNAQ / Fold change vs veh, GNAQ / RFU, CDK5R1 / Fold change vs veh, CDK5R1 / RFU, ZRANB3 / Fold change vs veh, ZRANB3 / RFU, CUL4A / Fold change vs veh, CUL4A / RFU, CCNY / Fold change vs veh, CCNY / RFU, UFL1 / Fold change vs veh, UFL1 / RFU, COG3 / Fold change vs veh, COG3 / RFU, DIAPH2 / Fold change vs veh, DIAPH2 / RFU, SKA2 / Fold change vs veh, SKA2 / RFU, AFF3 / Fold change vs veh, AFF3 / RFU, LMF1 / Fold change vs veh, LMF1 / RFU, IPO11 / Fold change vs veh, IPO11 / RFU, DFFB / Fold change vs veh, DFFB / RFU, FOXP1 / Fold change vs veh, FOXP1 / RFU, CARD8 / Fold change vs veh, CARD8 / RFU, STRN3 / Fold change vs veh, STRN3 / RFU, ADK / Fold change vs veh, ADK / RFU, RASSF2 / Fold change vs veh, RASSF2 / RFU, WIPF1 / Fold change vs veh, WIPF1 / RFU, LARP1B / Fold change vs veh, LARP1B / RFU, RASA1 / Fold change vs veh, RASA1 / RFU, RB1 / Fold change vs veh, RB1 / RFU, PPFIA1 / Fold change vs veh, PPFIA1 / RFU, MAT2A / Fold change vs veh, MAT2A / RFU, CCT5 / Fold change vs veh, CCT5 / RFU, WDR92 / Fold change vs veh, WDR92 / RFU, CUX1 / Fold change vs veh, CUX1 / RFU, TTC7A / Fold change vs veh, TTC7A / RFU, TMEM135 / Fold change vs veh, TMEM135 / RFU, DEPTOR / Fold change vs veh, DEPTOR / RFU, CPM / Fold change vs veh, CPM / RFU, DNAJB6 / Fold change vs veh, DNAJB6 / RFU, CACNA2D3 / Fold change vs veh, CACNA2D3 / RFU, DTX4 / Fold change vs veh, DTX4 / RFU, TFCP2 / Fold change vs veh, TFCP2 / RFU, GMCL1 /// GMCL1P1 / Fold change vs veh, GMCL1 /// GMCL1P1 / RFU, AEBP2 / Fold change vs veh, AEBP2 / RFU, SNHG1 /// SNORD22 /// SNORD25 /// SNORD26 /// SNORD27 /// SNORD28 /// SNORD29 /// SNORD31 / Fold change vs veh, SNHG1 /// SNORD22 /// SNORD25 /// SNORD26 /// SNORD27 /// SNORD28 /// SNORD29 /// SNORD31 / Fold change (Aza/veh), C12orf56 (ProbeSet 11735607_a_at) / Fold change (ACY-1035/veh), C12orf56 (ProbeSet 11735607_a_at) / Fold change (Aza/veh), FGFR1OP (ProbeSet 11751329_s_at) / Fold change (ACY-1035/veh), FGFR1OP (ProbeSet 11751329_s_at) / Fold change (Aza/veh), VPS36 (ProbeSet 11739960_a_at) / Fold change (ACY-1035/veh), VPS36 (ProbeSet 11739960_a_at) / RFU SYPL1 (11715823_x_at) / Fold change /veh SYPL1 (11715823_x_at) / RFU IGFBP7 (11715501_s_at) / Fold change /veh IGFBP7 (11715501_s_at) / RFU REEP3 (11722064_at) / Fold change /veh REEP3 (11722064_at) / RFU IGLL1 (11728026_x_at) / Fold change /veh IGLL1 (11728026_x_at): dose or concentration left out as unconfirmed
Conditions: ProbeSet 11725100_s_at; LIST B

**Q.** Which “Fold change vs veh, ESF1” value does the source give for `Nc1ccc(-c2cccs2)cc1NC(=O)c1ccc2c(c1)cc(C1CC1)n2CCN1CCOCC1` [ACY-1035] here?
**A.** The value was 0.88.

— paper PMC5218480 (PLoS ONE, 2017)
